Data published in ChEMBL document CHEMBL1145386, “Structure-based design, synthesis, and study of pyrazolo[1,5-a][1,3,5]triazine derivatives as potent inhibitors of protein kinase CK2” (Bioorg Med Chem Lett, 2007).
The source made the active and inactive calls. The rule behind the calls is not given here.

Molecular target: Casein kinase II subunit alpha (Zea mays, UniProt P28523)
Assay: Inhibition of corn CK2 alpha
Settings: not given

Sequence of Casein kinase II subunit alpha (P28523 whole entry): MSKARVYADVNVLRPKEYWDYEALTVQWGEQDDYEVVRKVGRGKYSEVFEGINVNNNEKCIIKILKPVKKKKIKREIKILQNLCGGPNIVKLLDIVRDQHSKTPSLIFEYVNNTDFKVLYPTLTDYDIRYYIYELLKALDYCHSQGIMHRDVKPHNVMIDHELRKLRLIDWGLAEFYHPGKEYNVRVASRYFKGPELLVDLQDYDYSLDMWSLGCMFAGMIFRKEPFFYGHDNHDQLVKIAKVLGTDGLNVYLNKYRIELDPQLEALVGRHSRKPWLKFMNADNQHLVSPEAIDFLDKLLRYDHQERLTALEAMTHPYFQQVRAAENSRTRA

| Ki [nM] | Structure (SMILES) |
| --- | --- |
| 242 | CN(c1ccccc1)c1nc(Nc2ccccc2)n2ncc(C#N)c2n1 |
| 24 | N#Cc1cnn2c(Nc3ccccc3)nc(Nc3ccccc3)nc12 |

Test system: HCT-116
Assay: Growth inhibition of HCT116 cells by MTT assay
Format: functional, cell-based
Settings: Homo sapiens

| IC50 [nM] | Structure (SMILES) | Activity |
| --- | --- | --- |
| 7600 | CC(=O)Nc1cccc(Nc2nc(Nc3ccccc3)n3ncc(C)c3n2)c1 |  |
| 18000 | CC(=O)Nc1cccc(Nc2nc(NC3CC3)n3ncc(Br)c3n2)c1 |  |
| 2100 | CC(=O)Nc1cccc(Nc2nc(Nc3cccc(OC(F)F)c3)n3ncc(C#N)c3n2)c1 |  |
| 990 | CC(=O)Nc1cccc(Nc2nc(Nc3ccccc3)n3ncc(C#N)c3n2)c1 |  |
| 2200 | CCN(CC)Cc1ccc(Nc2nc(Nc3cccc(NC(C)=O)c3)nc3c(C#N)cnn23)cc1 |  |
| 1480 | CCOc1cccc(Nc2nc(Nc3cccc(NC(C)=O)c3)nc3c(C#N)cnn23)c1 |  |
| 43000 | CC(=O)Nc1cccc(Nc2nc(NC3CC3)n3ncc(C)c3n2)c1 |  |
| 5500 | CC(=O)Nc1cccc(Nc2nc(NC3CCC3)n3ncc(C#N)c3n2)c1 |  |
| 1400 | CC(=O)Nc1cccc(Nc2nc(Nc3cccc(C(=O)N4CCCC4)c3)n3ncc(C#N)c3n2)c1 |  |
|  | CC(=O)Nc1cccc(Nc2nc(Nc3cccc(C(=O)O)c3)n3ncc(C#N)c3n2)c1 | inactive |
| 1060 | CC(=O)Nc1cccc(Nc2nc(Nc3ccc(CN4CCNCC4)cc3)n3ncc(C#N)c3n2)c1 |  |
| 760 | CCN(CC)C(=O)c1cccc(Nc2nc(Nc3cccc(NC(C)=O)c3)nc3c(C#N)cnn23)c1 |  |
| 2500 | CCN(CC)c1cccc(Nc2nc(Nc3cccc(NC(C)=O)c3)nc3c(C#N)cnn23)c1 |  |
| 39000 | CC(=O)Nc1cccc(Nc2nc(Nc3cccc(C(=O)NCCN(C)C)c3)n3ncc(C#N)c3n2)c1 |  |

| Structure (SMILES) | IC50 [nM] | Activity |
| --- | --- | --- |
| CC(=O)Nc1cccc(Nc2nc(NC3CC3)n3ncc(C#N)c3n2)c1 | 2300 |  |

Test system: PC-3
Assay: Growth inhibition of PC3 cells
Settings: Homo sapiens

| IC50 [nM] | Structure (SMILES) |
| --- | --- |
| 1700 | CC(=O)Nc1cccc(Nc2nc(Nc3cccc(OC(F)F)c3)n3ncc(C#N)c3n2)c1 |
| 1200 | CCOc1cccc(Nc2nc(Nc3cccc(NC(C)=O)c3)nc3c(C#N)cnn23)c1 |
| 780 | CC(=O)Nc1cccc(Nc2nc(Nc3cccc(C(=O)N4CCCC4)c3)n3ncc(C#N)c3n2)c1 |
| 1400 | CC(=O)Nc1cccc(Nc2nc(Nc3ccc(CN4CCNCC4)cc3)n3ncc(C#N)c3n2)c1 |
| 610 | CCN(CC)C(=O)c1cccc(Nc2nc(Nc3cccc(NC(C)=O)c3)nc3c(C#N)cnn23)c1 |
